B1: BDNF: brain-derived neurotrophic factor (protein, UniProt P23560 19-247, looked up)
Neurotrophic factor BDNF …: APMKEANIRGQGGLAYPGVRTHGTLESVNGPKAGSRGLTSLADTFEHVIEELLDEDQKVRPNEENNKDADLYTSRVMLSSQVPLEPPLLFLLEEYKNYLDAANMSMRVRRHSDPARRGELSVCDSISEWVTAADKKTAVDMSGGTVTVLEKVPVSKGQLKQYFYETKCNPMGYTKEGCRGIDKRHWNSQCRTTQSYVRALTMDSKKRIGWRFIRIDTSCVCTLTIKRGR

Legend:
[1] = tested on: dopaminergic neurons in E14 VM cultures; test: Dopaminergic apoptosis (TH, cleaved caspase-3, condensed nucleus) in E14 VM monolayer cultures; format: cell-based, rat
Experimental: A subset of tyrosine hydroxylase neurons co-localised with cleaved caspase-3 and a condensed nucleus, both markers of apoptotic cells. […] Immunocytochemical analysis was performed to determine whether LIF treatment (soluble or targeted nanoparticles) decreased the number of apoptotic dopaminergic neurons in these cultures.
E14 VM monolayer cultures, treated with soluble LIF or LIF/empty nanoparticles were fixed after 2, 3 or 5 days.

[2] = tested on: dopaminergic neurons in E14 VM cultures; test: LIF treatment during dissociation of E14 VM tissue, TH+ neuron count in monolayer culture; format: cell-based, rat; settings: tissue dissociated in 0.1 ng/ml LIF
Experimental: The VM of E14 rat foetuses was dissected and dissociated in medium with or without 0.1 ng/ml soluble LIF. The tissue was then plated in monolayer culture and grown for 2, 3 or 5 days prior to fixing. Dissociated cells were seeded in monolayer cultures and fixed after 2, 3 or 5 days in vitro (DIV).

[3] = tested on: E14 VM neural progenitor cells; test: E14 VM neurosphere expansion with soluble LIF, subsequent differentiation in monolayer culture; format: cell-based, rat; settings: 0.1 ng/ml LIF during neurosphere expansion; monolayer without LIF
Experimental: To investigate the effect of LIF treatment on the differentiation of E14 VM, tissue was grown as neurospheres in expansion medium with or without 0.1 ng/ml soluble LIF. Primary ventral midbrain tissue was expanded in medium containing the mitogens EGF and FGF-2 for 5 days. These neurospheres were then dissociated into single cells and plated in monolayer culture in the absence of LIF. After 5 days of growth these cultures were analysed via immunocytochemistry for neural and astroglial differentiation (FIGS. 6A and 6B, showing morphology + or − LIF). The presence of LIF during the expansion of E14 VM had no effect on subsequent differentiation (FIG. 7 showing results after 5 and 10 days).

[4] = tested on: dopaminergic neurons in E14 VM cultures; test: Growth medium supplemented with soluble LIF, TH+ neuron count in E14 VM cultures; format: cell-based, rat
Experimental: The VM of E14 rat foetuses was dissected and dissociated in standard conditions. Primary E14 VM tissue was dissociated and grown as monolayer cultures. After plating cells were chronically treated with soluble LIF in their growth medium ranging from 0.1 ng/ml to 100 ng/ml.

[5] = tested on: primary rat E14 VM tissue; test: Anti-Thy-1 directed BDNF or 7,8-DHF nanoparticles versus free factor in primary rat E14 VM cultures; format: cell-based; settings: 7 days in vitro
Experimental: To compare the effect of brain-derived neurotrophic factor (BDNF), or the BDNF agonist 7,8-dihydroxy flavone (7,8-DHF), when in a nano-particulate formulation targeted to Thy-1, versus free, primary rat E14 VM tissue was mixed with 100 μl of nanoparticle solution (0.05 mg; 0.1 mg; 1.0 mg nanoparticles/ml), or with free growth factor (10 nM; 100 nM; 1 μM; 10 μM) immediately prior to plating. After first confirming presence of Thy-1 antigen on the surface of TH+ neurons (data not shown), anti-Thy-1 decorated nanoparticles were prepared as either empty; or BDNF-nanoparticles; or 7,8 DHF-nanoparticles. Cultures were fixed after 7 days in vitro and analysed via immunocytochemistry for tyrosine hydroxylase positive cells. […] This is shown for 7,8 DHF-nanoparticles in FIG. 11A and FIG. 11B where the dose-response curve is similar to that reported by Jang et al (Jang et al, Proc. Natl. Acad. Sci. USA, 2010), with the exception of the high dose (10 μM) decline observed here.

| Molecule | level of dopaminergic apoptosis ([1]; 2 days in vitro) | dopaminergic apoptosis ([1]; 3 days in vitro) | number of TH+ neurons ([2]; 3 and 5 days in vitro) | number of TH+ neurons ([2]; 2 days in vitro) | subsequent neural and astroglial differentiation [3] | number of TH positive neurons ([4]; all LIF dosages above 0.1 ng/ml (up to 100 ng/ml)) | number of tyrosine hydroxylase positive neurons ([4]; growth medium with 0.1 ng/ml LIF, 3 and 5 days in vitro) | longest neurite length [5] | number of primary neurites [5] | serotonergic cells versus dopaminergic cells [5] |
| --- | --- | --- | --- | --- | --- | --- | --- | --- | --- | --- |
| LIF: leukaemia inhibitory factor, member of the IL-6 family of cytokines, used soluble in medium | significant reduction | did not reach statistical significance | effect was lost | significantly more | no effect | no significant effect | significantly increase |  |  |  |
| O=c1cc(-c2ccccc2)oc2c(O)c(O)ccc12 [7,8-DHF, 7,8-dihydroxy flavone, reference compound] |  |  |  |  |  |  |  | neither soluble 7,8-DHF nor 7,8-DHF-nano altered | neither soluble 7,8-DHF nor 7,8-DHF-nano altered | constant ratio |
| B1 |  |  |  |  |  |  |  | significant increase | significant increase | constant ratio |
